One series relates to rat erythrocytes. Briefly: Hemolysis assay. It is filed as cell-based. The following applies: for HC10 / HC50: pH 7.4. A digest of the protocol: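 Washed Sprague-Dawley rat erythrocytes (10% suspension in PBS pH 7.4) mixed with peptoids (0–100 µM), 60 min at 37 °C; supernatant A540 expressed as % of 1% Triton X-100 lysis. HC10/HC50 are concentrations giving 10%/50% hemolysis; Hmax is hemolysis at 100 µM.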

Series [1] can be described thus: Analytical reversed-phase HPLC elution (hydrophobicity). It is filed as physicochemical. The note with it: Table S1; analytical RP-HPLC, SunFire C18, water/ACN + 0.1% TFA, 5 to 100% B linear over 30 min, 1 mL/min, UV 220 nm; approximate comparison of hydrophobicity. The essentials:
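Analytical reversed-phase HPLC on a C18 column (4.6 × 250 mm, 5 μm) at 1 mL/min, water/acetonitrile each with 0.1% TFA. Held at 5% B for 2 min, then linear to 100% B over 30 min and held 5 min, with UV detection at 220 nm; retention time (tR) serves as hydrophobicity measure.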

In general, HC50 refers to the concentration giving 50% haemolysis.

Square brackets hold non-standard residues; d marks the D form. Peptide text beside a SMILES is read from it. Gly(N(CH2)2(3-indolyl)) = O=C(O)CNCCc1c[nH]c2ccccc12; Nspe = C[C@H](NCC(=O)O)c1ccccc1; Nphe = O=C(O)CNCc1ccccc1; Nlys = NCCCCNCC(=O)O

Regarding `NCCCCNCC(=O)N(CC(=O)N(CC(=O)N(CCCCN)CC(=O)N(CC(=O)N(CC(=O)N(CCCCN)CC(=O)N(CC(=O)N(CC(=O)N(CCCCN)CC(=O)N(CC(=O)N(CC(N)=O)Cc1ccccc1)Cc1ccccc1)Cc1ccccc1)Cc1ccccc1)Cc1ccccc1)Cc1ccccc1)Cc1ccccc1)Cc1ccccc1` [peptoid 2, reference compound] (H-[Nlys][Nphe][Nphe][Nlys][Nphe][Nphe][Nlys][Nphe][Nphe][Nlys][Nphe][Nphe]-NH2), in the series on rat erythrocytes, the “Hmax (100 µM)” value amounted to 17.7±1.1%, the HC10 is 20.4 µM and the HC50 is > 100.0 µM. Also, the HPLC elution in series [1] is listed as 50.7 % MeCN.
Taken in the same sequence, the figures for `C[C@@H](c1ccccc1)N(CC(=O)N(CCCCN)CC(=O)N(CCCCN)CC(=O)N(CCc1c[nH]c2ccccc12)CC(=O)N(CCc1c[nH]c2ccccc12)CC(N)=O)C(=O)CN(CCCCN)C(=O)CN(C(=O)CN(C(=O)CN(CCCCN)C(=O)CN(C(=O)CN(C(=O)CNCCCCN)[C@@H](C)c1ccccc1)[C@@H](C)c1ccccc1)[C@@H](C)c1ccccc1)[C@@H](C)c1ccccc1` [peptoid 28] (H-[Nlys][Nspe][Nspe][Nlys][Nspe][Nspe][Nlys][Nspe][Nlys][Nlys][Gly(N(CH2)2(3-indolyl))][Gly(N(CH2)2(3-indolyl))]-NH2) were 8.9±1.4%, > 100 µM, > 100 µM and 48.6 % MeCN.
Taken in the same sequence, the figures for `C[C@@H](c1ccccc1)N(CC(N)=O)C(=O)CN(CCCCN)C(=O)CN(CCCCN)C(=O)CN(C(=O)CN(C(=O)CN(CCCCN)C(=O)CN(CCc1c[nH]c2ccccc12)C(=O)CN(C(=O)CN(CCCCN)C(=O)CN(C(=O)CN(C(=O)CNCCCCN)[C@@H](C)c1ccccc1)[C@@H](C)c1ccccc1)[C@@H](C)c1ccccc1)[C@@H](C)c1ccccc1)[C@@H](C)c1ccccc1` [peptoid 24] were 1.5±0.0%, > 100 µM, > 100 µM and 49.4 % MeCN.
Regarding `C[C@@H](c1ccccc1)N(CC(N)=O)C(=O)CN(C(=O)CN(CCCCN)C(=O)CN(C(=O)CN(C(=O)CN(CCCCN)C(=O)CN(C(=O)CN(C(=O)CN(CCCCN)C(=O)CN(C(=O)CN(CCCCN)C(=O)CN(CCCCN)C(=O)CN(CCc1c[nH]c2ccccc12)C(=O)CNCCc1c[nH]c2ccccc12)[C@@H](C)c1ccccc1)[C@@H](C)c1ccccc1)[C@@H](C)c1ccccc1)[C@@H](C)c1ccccc1)[C@@H](C)c1ccccc1)[C@@H](C)c1ccccc1` [peptoid 36], in the series with rat erythrocytes, the “Hmax (100 µM)” value was found to be 89.1±3.4%, the HC10 turned out to be 15.3 µM and the HC50 came out at 39.4 µM. Further, the HPLC elution in series [1] was 52.4 % MeCN.
Taken in the same sequence, the figures for `C[C@@H](c1ccccc1)N(CC(N)=O)C(=O)CN(C(=O)CN(CCCCN)C(=O)CN(CCc1c[nH]c2ccccc12)C(=O)CN(CCc1c[nH]c2ccccc12)C(=O)CN(CCCCN)C(=O)CN(CCc1c[nH]c2ccccc12)C(=O)CN(CCc1c[nH]c2ccccc12)C(=O)CN(CCCCN)C(=O)CN(C(=O)CN(C(=O)CNCCCCN)[C@@H](C)c1ccccc1)[C@@H](C)c1ccccc1)[C@@H](C)c1ccccc1` [peptoid 20] were 106.7±3.5%, 8.2 µM, 33.9 µM and 52.7 % MeCN.
Take `C[C@@H](c1ccccc1)N(CC(N)=O)C(=O)CN(C(=O)CN(CCCCN)C(=O)CN(CCc1c[nH]c2ccccc12)C(=O)CN(C(=O)CN(CCCCN)C(=O)CN(C(=O)CN(C(=O)CN(CCCCN)C(=O)CN(C(=O)CN(C(=O)CNCCCCN)[C@@H](C)c1ccccc1)[C@@H](C)c1ccccc1)[C@@H](C)c1ccccc1)[C@@H](C)c1ccccc1)[C@@H](C)c1ccccc1)[C@@H](C)c1ccccc1` [peptoid 8]: in the series on rat erythrocytes, the “Hmax (100 µM)” value amounted to 105.1±2.2%, the HC10 amounted to 12.8 µM and the HC50 is listed as 28.4 µM. Moreover, in series [1], the HPLC elution is 54.5 % MeCN.

These data come from PMC10460844, “Real‐Time Monitoring of Multitarget Antimicrobial Mechanisms of Peptoids Using Label‐Free Imaging with Optical Diffraction Tomography” (Advanced Science, 2023).
